Experimental data reported in US5235045A, “Non-azo naphthalimide dyes” (priority 1992, dated 1993).
Read-outs that look alike come from different tables or passages of the source.

Legend:
[1] = tested on: H9 cells; test: Cell viability in absence of light (trypan blue exclusion); format: cell-based, human; settings: dark, 1 hour after
From the text: Following the protocol of (1), above, H9 cells were stained with Compound lb, and the technique of fluorescent microscopy was used to determine visually the sites of localization of dye fluorescence in living cells. Specifically, H9 cells were counted with a hemocytometer and diluted to 5×10^5 /ml. […] Cytospin slides of the cell suspensions were made and they were examined with the fluorescence microscope (Olympus AH-2) using B excitation plus a 460 nm interference excitation filter and a 495 nm emission filter. The cells were also counted with a hemocytometer and their viability determined (see below). […] The former may reflect the diffusional component of the dye incorporation, or may reflect binding in the ER membrane. The latter may indicate lysosomal localization of pinocytosed dye as occurs with Lucifer Yellow.
Cell viability was determined using dye incorporated according to the protocol directly above. Viability was determined using a trypan blue dye exclusion test in which "live" cells with competent cell membranes exclude the dye. Table 5 summarizes the data obtained using cells exposed to Compound 1b in culture medium, and Table 6 summarizes data obtained using cells exposed to Compound VII.

[2] = Bleaching and recovery of fluorescence in aqueous suspension of Cremophor EL; format: physicochemical
Method: A 14.9 millimolar stock solution of Ed6Br in Cremophor EL was used to make 3 ml of a micellar Cremophor suspension having a concentration averaged over the entire sample volume of […]. A […] aliquot was removed and diluted with 2.9 ml of distilled water for measurement of fluorescence using an SLM 500C spectrofluorometer (excitation, 420 nm, emission, 520 nm). The 3 ml sample was divided into two 1.5 ml aliquots placed in quartz crusetts. One sample was irradiated with stirring with 420 # 5 nm filtered light from a xenon arc lamp with an irradiance of 20 mW/cm^2 and with the companion sample wrapped in aluminum foil (dark control) and maintained alongside of the irradiated sample. […] After the entire light treatment, both the illuminated and dark control samples were divided into two equal aliquots and held pairwise (dark+previously illuminated) at 4° C. and 20° C. in the absence of light. Aliquots of […] were taken from each sample after 18 and 43 hr and their fluorescence emission values determined using the SLM 500C instrument immediately after sampling.
In an experiment eventually following the protocol described immediately above in Part I (for Ed6Br), the light-induced bleaching of DiEd6Br with 200 J/cm^2 light exposure and recovery of its fluorescence upon standing in the dark at 22° C. were determined.

[3] = tested on: H9 cells; test: Dye-mediated light kill of H9 cells (trypan blue); format: cell-based; settings: Homo sapiens, 10% FCS medium, read-out: Percent Viability
Method: Photoinduced killing of H9 cells with Compound 1b as the mediator of photochemical toxicity were carried out according to the following protocol:
Compound 1b was added to the H9 cells (5×10^5 /ml) in medium or 100% human plasma to give dye concentrations of 0, 25 and 100 μM (1 control, 2 duplicates of both non-azo dye samples). Two 2-ml aliquots of each of the duplicated dye samples was irradiated with 10J/cm^2 total energy of 450±35 nm wavelength light in a sealed 3-ml test tube. Immediately after irradiation, the cells were centrifuged at 450×g for 10 minutes, and the pellets resuspended in the original volume of fresh RPMI-1640+10% FCS+gentamycin. The cell suspensions were transferred to a 12-well TC plate and placed in a 37° C. 5% CO2 incubator. Cell viability counts (trypan blue) were carried out at 4, 24, 48, and 72 hours post irradiation. The results of these experiments are summarized in Tables 7 (medium) and 8 (100% human plasma).
Photoinduced killing of H9 cells with Compound VII as the mediator of photochemical toxicity were carried out in 10% FCS medium according to the same general protocol using concentrations of the dye at 0, 5, 25 and 100 μM., and irradiating at 420±5 nm at 10J/cm^2 total energy.

[4] = tested on: Vero cells; test: Cellular toxicity in Vero cells (viral-medium suspension samples); format: cell-based
Method: (§1) Each sample including the stock virus were assayed on Vero cells for PFU/ml of HSV-1. The assay consisted of growing Vero cells in minimal essential medium with Hanks balanced salt solution supplemented with 10% fetal bovine serum, L-glutamine and antibiotics. Hepes buffer (2%) was added for growth in open plates (twelve well microplates from CO-star). Ten fold dilutions of each sample were prepared and 0.1 ml of the appropriate dilution for each individual sample was adsorbed at 37° C. for 1.5 hr. on a cell monolayer from which the growth medium had been removed. After the adsorption period, the cell monolayer was washed and an overlay consisting of equal volumes of 2X strength L-15 medium and 2% methylcellulose was added. Following an appropriate incubation time at 37° C. (about 4 days), the overlay medium was removed. Monolayers were fixed with methanol and stained with giemsa to elaborate the presence of plaques. The plaques were counted using a dissecting microscope at a magnification of 20X.
as §1, with “Co-star).” for “CO-star).”

[5] = 1 μM, 100% human plasma 4 hours
[6] = 5 μM, 100% human plasma 4 hours
[7] = 25 μM, 100% human plasma 4 hours
[8] = H9, light or radiation study, 4 h, hν 420±5 nm 10J/cm^2, 4 hours

CCCCCCNc1c(Br)cc2c3c(cccc13)C(=O)N(CCCCCC)C2=O [Compound VII, 3-bromo-4-(hexyl)amino-N-hexyl-1,8-naphthalimide]
dead cells [1, 5]: 12
live cells [1, 5]: 280
dead cells ([1]; 1 μM, medium 24 hours): 23
live cells ([1]; 1 μM, medium 24 hours): 151
dead cells [1, 6]: 16
live cells [1, 6]: 286
dead cells ([1]; 10 μM, medium 24 hours): 26
live cells ([1]; 10 μM, medium 24 hours): 104
dead cells [1, 7]: 16
live cells [1, 7]: 339
dead cells ([1]; 25 μM, medium 24 hours): 38
live cells ([1]; 25 μM, medium 24 hours): 148
dead cells ([1]; 50 μM, medium 24 hours): 128
live cells ([1]; 50 μM, medium 24 hours): 124
% Un-irradiated Fluorescence ([2]; 0 J/cm^2, Cremophor EL): 100%
Fluorescence Recovery in Dark ([2]; 0 hour, 4° C.): 18.2%
Fluorescence Recovery in Dark ([2]; 0 hour, 22° C.): 18.2%
% Un-irradiated Fluorescence ([2]; 10 J/cm^2, 420 nm, Cremophor EL): 97.8%
% Un-irradiated Fluorescence ([2]; 25 J/cm^2, 420 nm, Cremophor EL): 96.2%
% Un-irradiated Fluorescence ([2]; 50 J/cm^2, 420 nm, Cremophor EL): 74.9%
% Un-irradiated Fluorescence ([2]; 90 J/cm^2, 420 nm, Cremophor EL): 48.7%
irradiation induced loss of fluorescent intensity ([2]; 200 J/cm^2): about 80%
% Un-irradiated Fluorescence ([2]; 200 J/cm^2, 420 nm, Cremophor EL): 18.2%
Fluorescence Recovery in Dark ([2]; 18 hour, 4° C.): 24.6%
Fluorescence Recovery in Dark ([2]; 18 hour, 22° C.): 39.4%
Fluorescence Recovery in Dark ([2]; 43 hour, 4° C.): 36.8%
Fluorescence Recovery in Dark ([2]; 43 hour, 22° C.): 56.7%
initially activated species permanently losing fluorescence ([2]; Cremophor EL): Approximately 50%
initially activated species recovering fluorescence ([2]; Cremophor EL): Approximately 50%
ultimate fluorescent intensity regained, of initial ([2]; after 200 J/cm^2): approximately 40%
change of fluorescence emission intensity in absence of light ([2]; dark): lack of change of the value of fluorescence emission intensity
viability at 5 µM ([3]; H9, 4 h, no hν, 4 hours): 86.5%
viability at 25 µM ([3]; H9, 4 h, no hν, 4 hours (Table 9)): 90%
viability at 5 µM [3, 8]: 0%
viability at 25 µM [3, 8]: 0%
viability at 100 µM ([3]; H9, light or radiation study, 4 h, 100 μM, hν 420±5 nm 10J/cm^2, 4 hours, light reached only approximately 2 mm): 1.8%
cellular toxicity ([4]; Ed6Br, 8 concentrations, not irradiated): no evidence of cellular toxicity
cellular toxicity of not previously irradiated samples ([4]; two concentrations, vs irradiated samples): significantly less cellular toxicity than the irradiated samples
